# Test system: Mouse cortical cell cultures
# Assay: FeCl2-induced free radical neurotoxicity in mixed cortical cell cultures (LDH assay)
# Format: cell-based
# Conditions: continuous 50 μM FeCl2; 1-30 μM; LDH 24 hr later
# Experimental: (§1) Mouse cortical cell cultures (DIV 12-14) were exposed to continuously to 50 μM Fe^2+, alone or with inclusion of 0.1-100 μM 2-Hydroxy-TTBA (●) or trolox (◯), a membrane-permeable form of vitamin E). Neuronal death was analyzed 24 hr later by measuring levels of LDH released into the bathing medium, mean ±SEM (n=9-12 culture wells per condition), scaled to mean LDH efflux value 24 hr after sham wash (=0) and continuous exposure to 500 μM NMDA (=100). *, Significant difference from the vehicle control, p<0.05 using ANOVA and Student-Neuman-Keuls' test.
# as §1, with “alone (♦)” for “alone”, “1-30” for “0.1-100”, “2-Hydroxy-TTS (●), 2-Hydroxy-TTA (◯), 2-Chloro-TTP (▾), 2-Ethan-TTBA (∇), 2-Propan-TTBA (▪),” for “2-Hydroxy-TTBA (●)”, “2-Cyclohexan-TTBA (□).” for “trolox (◯), a membrane-permeable form of vitamin E).”
# (§2) For mixed neuron-glia culture, mouse cerebral cortices were removed from brains of the 14-16 day-old-fetal mice (E14-16), gently triturated and plated on 24 well plates (2×10^5 cells/plate) precoated with 100 μg/ml poly-D-lysine and 4 μg/ml laminine. Cultures were maintained at 37° C. in a humidified 5% CO2 atmosphere. Plating media consist of Eagles minimal essential media (MEM, Earles salts, supplied glutamine-free) supplemented with 5% horse serum, 5% fetal bovine serum, 26.5 mM bicarbonate, 2 mM glutamine, and 21 mM glucose.
# (§3) After 7-8 days in vitro (DIV 7-8), 10 μM cytosine arabinofuranoside (Ara-C) was included to halt overgrowth of glia. The drug treatment was carried on DIV 12-15 cortical cell culture. Overall neuronal cell injury was assessed by measuring amount of lactate dehydrogenase (LDH) released into the bathing medium 24 hr after neurotoxic insults as previously described [Koh and Choi, J Neurosci Methods 20:83-90, 1987].
# Mixed cortical cell cultures (DIV 13-15) were continuously exposed to 50 μM FeCl2, which produces hydroxyl radical via a Fenton reaction, alone or with inclusion of 2-Hydroxy-TTBA, 2-Hydroxy-TTA, 2-Hydroxy-TTS, 2-Chloro-TTP, 2-Ethan-TTBA, 2-Propan-TTBA, 2-Cyclohexan-TTBA or trolox (a vitamin E analogue) at indicated doses. Neuronal cell death was analyzed 24 hr later by LDH assay as described above. *, Significant difference from the vehicle control (FeCl2), p<0.05 using ANOVA and Student-Neuman-Keuls' test.
row,SMILES,neuroprotective effect compared with trolox against FeCl2-induced free radical neurotoxicity
1,"Oc1ccc(NCc2c(F)c(F)c(C(F)(F)F)c(F)c2F)cc1Cl [2-Chloro-TTP, 2-chloro-4-(2,3,5,6-tetrafluoro-4-trifluoromethylbenzylamino)phenol]",much stronger neuroprotective effects than trolox
2,"O=C(O)c1cc(NCc2c(F)c(F)c(C(F)(F)F)c(F)c2F)ccc1OC(=O)C1CCCCC1 [2-Cyclohexan-TTBA, 2-cyclohexanecarbonyloxy-5-(2,3,5,6-tetrafluoro-4-trifluoromethylbenzylamino)benzoic acid]",much stronger neuroprotective effects than trolox
3,"CC(=O)Oc1ccc(NCc2c(F)c(F)c(C(F)(F)F)c(F)c2F)cc1C(=O)O [2-Ethan-TTBA, 2-ethanoyloxy-5-(2,3,5,6-tetrafluoro-4-trifluoromethylbenzylamino)benzoic acid]",much stronger neuroprotective effects than trolox
4,"NC(=O)c1cc(NCc2c(F)c(F)c(C(F)(F)F)c(F)c2F)ccc1O [2-Hydroxy-TTA, 2-hydroxy-5-(2,3,5,6-tetrafluoro-4-trifluoromethylbenzylamino)benzamide]",much stronger neuroprotective effects than trolox
5,"O=S(=O)(O)c1cc(NCc2c(F)c(F)c(C(F)(F)F)c(F)c2F)ccc1O [2-Hydroxy-TTS, 2-hydroxy-5-(2,3,5,6-tetrafluoro-4-trifluoromethylbenzylamino)benzene sulfonic acid]",much stronger neuroprotective effects than trolox
6,"CCC(=O)Oc1ccc(NCc2c(F)c(F)c(C(F)(F)F)c(F)c2F)cc1C(=O)O [2-Propan-TTBA, 2-propanoyloxy-5-(2,3,5,6-tetrafluoro-4-trifluoromethylbenzylamino)benzoic acid]",much stronger neuroprotective effects than trolox

# Same assay, conditions: continuous 50 μM FeCl2; LDH 24 hr later
row,SMILES,prevention of FeCl2-induced free radical neurotoxicity
1,"Cc1c(C)c2c(c(C)c1O)CCC(C)(C(=O)O)O2 (stereo not drawn) [trolox, reference compound]",prevented FeCl2-induced free radical neurotoxicity in a dose-dependent manner

# Test system: Mouse cortical cell cultures
# Assay: SNP (sodium nitroprusside) cytotoxicity in mixed cortical cell cultures (LDH assay)
# Format: cell-based
# Conditions: continuous 5 μM SNP; LDH 24 hr later
# Experimental: as §1, with “continuously 5” for “continuously to 50”, “μM sodium nitroprusside (SNP),” for “μM Fe^2+,”, “alone (●)” for “alone”, “of 0.1-10 mM aspirin (◯), 1-100 μM trolox (▾), or 0.1-10” for “of 0.1-100”, “2-Hydroxy-TTBA (∇).” for “2-Hydroxy-TTBA (●) or trolox (◯), a membrane-permeable form of vitamin E).”
# as §2, §3
# Mixed cortical cell cultures were continuously exposed to 5 μM SNP, a nitric oxide (NO) donor, alone or with inclusion of 0.1-10 μM 2-Hydroxy-TTBA, 1-10 μM trolox or 100-10,000 μM aspirin. Neuronal cell death was analyzed 24 hr later by LDH assay. *, Significant difference from the vehicle control (SNP), p<0.05 using ANOVA and Student-Neuman-Keuls' test.
row,SMILES,effect on SNP toxicity
1,"CC(=O)Oc1ccccc1C(=O)O [Aspirin, aspirin, reference compound]",did not reduce SNP cytotoxicity
2,"Cc1c(C)c2c(c(C)c1O)CCC(C)(C(=O)O)O2 (stereo not drawn) [trolox, reference compound]",completely blocked

# Test system: not given
# Assay: not given
# Conditions: not given
row,melting point [°C],SMILES
1,121,"O=C(O)c1cc(NCc2c(F)c(F)c(C(F)(F)F)c(F)c2F)ccc1[N+](=O)[O-] [Synthesis Example 2, 2-nitro-5-(2,3,5,6-tetrafluoro-4-trifluoromethylbenzylamino)benzoic acid]"
2,58,"O=C(O)c1cc(NCc2c(F)c(F)c(C(F)(F)F)c(F)c2F)ccc1Cl [Synthesis Example 3, 2-chloro-5-(2,3,5,6-tetrafluoro-4-trifluoromethylbenzylamino)benzoic acid]"
3,70,"O=C(O)c1cc(NCc2c(F)c(F)c(C(F)(F)F)c(F)c2F)ccc1Br [Synthesis Example 4, 2-bromo-5-(2,3,5,6-tetrafluoro-4-trifluoromethylbenzylamino)benzoic acid]"
4,212,"Cc1c(F)c(F)c(CNc2ccc(O)c(C(=O)O)c2)c(F)c1F [Synthesis Example 5, 2-hydroxy-5-(2,3,5,6-tetrafluoro-4-methylbenzylamino)benzoic acid]"
5,84,"Cc1ccc(NCc2c(F)c(F)c(C(F)(F)F)c(F)c2F)cc1C(=O)O [Synthesis Example 6, 2-methyl-5-(2,3,5,6-tetrafluoro-4-trifluoromethylbenzylamino)benzoic acid]"
6,94,"COc1ccc(NCc2c(F)c(F)c(C(F)(F)F)c(F)c2F)cc1C(=O)O [Synthesis Example 7, 2-methoxy-5-(2,3,5,6-tetrafluoro-4-trifluoromethylbenzylamino)benzoic acid]"
7,38,"O=C(O)c1cc(NCc2c(F)c(F)c(C(F)(F)F)c(F)c2F)ccc1OC(F)(F)F [Synthesis Example 8, 5-(2,3,5,6-tetrafluoro-4-trifluoromethylbenzylamino)-2-trifluoromethoxybenzoic acid]"
8,126 to 128,"O=[N+]([O-])c1cc(NCc2c(F)c(F)c(C(F)(F)F)c(F)c2F)ccc1O [Synthesis Example 9, 2-nitro-4-(2,3,5,6-tetrafluoro-4-trifluoromethylbenzylamino)phenol]"
9,127,"COC(=O)c1cc(NCc2c(F)c(F)c(C(F)(F)F)c(F)c2F)ccc1O [Synthesis Example 13, methyl 2-hydroxy-5-(2,3,5,6-tetrafluoro-4-trifluoromethylbenzylamino)benzoate]"

# From US7511074B2, “Tetrafluorobenzyl derivatives and pharmaceutical composition for preventing and treating acute and chronic neurodegenerative diseases in central nervous system containing the same” (AmKor Pharma, Inc., priority 2002, dated 2009)
